pIC50: −log10 of the molar value.

One test has as its system MDA-MB-453. In words: Inhibition of MDA-MB-453 cell proliferation. Format: functional, cell-based. The following applies: Homo sapiens.
The target in test [1] is T1, Growth factor receptor-bound protein 2 (Homo sapiens, UniProt P62993). As to the kind of experiment: Inhibition of Growth factor receptor bound protein 2 SH2 domain binding to p185erbB-2 receptor.
In test [2] the target is T1, Growth factor receptor-bound protein 2. In words: Binding affinity for Growth factor receptor bound protein 2 SH2 domain.

T1 sequence (P62993 whole entry, the tested form may be a part): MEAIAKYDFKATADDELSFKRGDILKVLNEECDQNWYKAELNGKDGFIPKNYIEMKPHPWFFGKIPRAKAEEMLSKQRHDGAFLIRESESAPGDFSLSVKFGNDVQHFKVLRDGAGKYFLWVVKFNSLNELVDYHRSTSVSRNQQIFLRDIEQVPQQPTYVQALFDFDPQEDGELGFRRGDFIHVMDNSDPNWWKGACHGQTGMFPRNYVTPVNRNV

For `NC(=O)C[C@H](NC(=O)C1(NC(=O)[C@@H](CC(=O)O)Cc2ccc(CP(=O)(O)O)cc2)CCCCC1)C(=O)NCCCc1cccc2ccccc12`, the values for the pIC50 (in the test with MDA-MB-453; in test [1]; in test [2]) were 5.10, 5.00 and 8.10, respectively.
As to `NC(=O)C[C@H](NC(=O)C1(NC(=O)[C@H](Cc2ccc(CP(=O)(O)O)cc2)NC(=O)C(=O)O)CCCCC1)C(=O)NCCCc1cccc2ccccc12`, the figures for the pIC50 (in the test with MDA-MB-453; in test [1]; in test [2]) were 5.30, 5.52 and 8.05, respectively.
As to `[N-]=[N+]=N[C@@H](Cc1ccc(CP(=O)(O)O)cc1)C(=O)NC1(C(=O)N[C@@H](CC(N)=O)C(=O)NCCCc2cccc3ccccc23)CCCCC1`, the pIC50 – broadly, the IC50 on a negative log10 scale, so that one unit is a factor of ten – is < 4.30 with MDA-MB-453, < 4.52 in test [1] and 5.30 in test [2].

The values above are taken from ChEMBL document CHEMBL1135561, “Development of a phosphatase-stable phosphotyrosyl mimetic suitably protected for the synthesis of high-affinity Grb2 SH2 domain-binding ligands” (Bioorg Med Chem Lett, 2002).
